# Measurements from PubChem BioAssay AID1963836 (Molecular Pharmacology Branch, DTP, NCI, 2024).
# Test system: 857933-349-R-J2-PDC complex spheroid viability
# Test: Anticancer human tumor 857933-349-R-J2-PDC patient-derived colon adenocarcinoma cell line growth inhibition [POLQ]
# Details: for IC50: curve of first compound; for viability, T/C: stronger effect = lower value
# Outline: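 PDC + HUVEC + MSC complex spheroids; POLQ inhibitors ± partner drugs; top conc. at/near clinical Cmax, else 10 microM (SN-38 1 microM), half-log dilutions; 37 degrees C, 5% CO2.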
# [1] = second compound 0.0316 µM, first compound 0.0316 µM
# [2] = second compound 0.0316 µM, first compound 0.1 µM
# [3] = second compound 0.0316 µM, first compound 0.316 µM
# [4] = second compound 0.0316 µM, first compound 1 µM
# [5] = second compound 0.0316 µM, first compound 3.16 µM
# [6] = second compound 0.0316 µM, first compound 10 µM
# [7] = second compound 0.1 µM, first compound 0.0316 µM
# [8] = second compound 0.1 µM, first compound 0.1 µM
# [9] = second compound 0.1 µM, first compound 0.316 µM
# [10] = second compound 0.1 µM, first compound 1 µM
# [11] = second compound 0.1 µM, first compound 3.16 µM
# [12] = second compound 0.1 µM, first compound 10 µM
# [13] = second compound 0.316 µM, first compound 0.0316 µM
# [14] = second compound 0.316 µM, first compound 0.1 µM
# [15] = second compound 0.316 µM, first compound 0.316 µM
# [16] = second compound 0.316 µM, first compound 1 µM
# [17] = second compound 0.316 µM, first compound 3.16 µM
# [18] = second compound 0.316 µM, first compound 10 µM
# [19] = second compound 1 µM, first compound 0.0316 µM
# [20] = second compound 1 µM, first compound 0.1 µM
# [21] = second compound 1 µM, first compound 0.316 µM
# [22] = second compound 1 µM, first compound 1 µM
# [23] = second compound 1 µM, first compound 3.16 µM
# [24] = second compound 1 µM, first compound 10 µM
# [25] = second compound 3.16 µM, first compound 0.0316 µM
# [26] = second compound 3.16 µM, first compound 0.1 µM
# [27] = second compound 3.16 µM, first compound 0.316 µM
# [28] = second compound 3.16 µM, first compound 1 µM
# [29] = second compound 3.16 µM, first compound 3.16 µM
# [30] = second compound 3.16 µM, first compound 10 µM
# [31] = second compound 10 µM, first compound 0.0316 µM
# [32] = second compound 10 µM, first compound 0.1 µM
# [33] = second compound 10 µM, first compound 0.316 µM
# [34] = second compound 10 µM, first compound 1 µM
# [35] = second compound 10 µM, first compound 3.16 µM
# [36] = second compound 10 µM, first compound 10 µM
# 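Further: spheroids exposed to compounds for seven days before readout.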
structure (smiles),measurement,setting,value
CNCc1ccc(-c2[nH]c3cc(F)cc4c3c2CCNC4=O)cc1 + COC1C(OC(N)=O)C(O)C(Oc2ccc3c(O)c(NC(=O)c4ccc(O)c(CC=C(C)C)c4)c(=O)oc3c2C)OC1(C)C,IC50,second compound 0.0316 µM,> 10 µM
same,IC50,second compound 0.1 µM,> 10 µM
same,IC50,second compound 0.316 µM,> 10 µM
same,IC50,second compound 1 µM,> 10 µM
same,IC50,second compound 3.16 µM,> 10 µM
same,IC50,second compound 10 µM,> 10 µM
same,"viability, T/C",[1],85.1%
same,"viability, T/C",[2],90%
same,"viability, T/C",[3],93.8%
same,"viability, T/C",[4],89.9%
same,"viability, T/C",[5],87.1%
same,"viability, T/C",[6],69.5%
same,"viability, T/C",[7],103%
same,"viability, T/C",[8],87.7%
same,"viability, T/C",[9],88.9%
same,"viability, T/C",[10],117%
same,"viability, T/C",[11],99.2%
same,"viability, T/C",[12],106%
same,"viability, T/C",[13],88.5%
same,"viability, T/C",[14],96.9%
same,"viability, T/C",[15],102%
same,"viability, T/C",[16],111%
same,"viability, T/C",[17],103%
same,"viability, T/C",[18],92.3%
same,"viability, T/C",[19],97.2%
same,"viability, T/C",[20],97.2%
same,"viability, T/C",[21],67.9%
same,"viability, T/C",[22],83.5%
same,"viability, T/C",[23],117%
same,"viability, T/C",[24],103%
same,"viability, T/C",[25],82.5%
same,"viability, T/C",[26],102%
same,"viability, T/C",[27],90.3%
same,"viability, T/C",[28],87.2%
same,"viability, T/C",[29],104%
same,"viability, T/C",[30],88.8%
same,"viability, T/C",[31],66.3%
same,"viability, T/C",[32],92.3%
same,"viability, T/C",[33],84.3%
same,"viability, T/C",[34],74.9%
same,"viability, T/C",[35],95.3%
same,"viability, T/C",[36],90.5%
Nc1ccn(C2OC(CO)C(O)C2(F)F)c(=O)n1 (stereo unspecified) + COC1C(OC(N)=O)C(O)C(Oc2ccc3c(O)c(NC(=O)c4ccc(O)c(CC=C(C)C)c4)c(=O)oc3c2C)OC1(C)C,IC50,second compound 0.0316 µM,0.159 µM
same,IC50,second compound 0.1 µM,0.152 µM
same,IC50,second compound 0.316 µM,0.148 µM
same,IC50,second compound 1 µM,0.164 µM
same,IC50,second compound 3.16 µM,0.138 µM
same,IC50,second compound 10 µM,0.162 µM
same,"viability, T/C",[1],68.6%
same,"viability, T/C",[2],63.7%
same,"viability, T/C",[3],30.3%
same,"viability, T/C",[4],17.6%
same,"viability, T/C",[5],12.9%
same,"viability, T/C",[6],11.4%
same,"viability, T/C",[7],91.6%
same,"viability, T/C",[8],63.3%
same,"viability, T/C",[9],26.3%
same,"viability, T/C",[10],17.3%
same,"viability, T/C",[11],11.3%
same,"viability, T/C",[12],11.4%
same,"viability, T/C",[13],67.3%
same,"viability, T/C",[14],64.5%
same,"viability, T/C",[15],22.4%
same,"viability, T/C",[16],16.8%
same,"viability, T/C",[17],13.5%
same,"viability, T/C",[18],10.9%
same,"viability, T/C",[19],74.1%
same,"viability, T/C",[20],68.5%
same,"viability, T/C",[21],25.5%
same,"viability, T/C",[22],19.6%
same,"viability, T/C",[23],14.5%
same,"viability, T/C",[24],7.53%
same,"viability, T/C",[25],82.1%
same,"viability, T/C",[26],59.4%
same,"viability, T/C",[27],25.8%
same,"viability, T/C",[28],16.8%
same,"viability, T/C",[29],12.8%
same,"viability, T/C",[30],11.8%
same,"viability, T/C",[31],77.7%
same,"viability, T/C",[32],65.6%
same,"viability, T/C",[33],28.2%
same,"viability, T/C",[34],14.9%
same,"viability, T/C",[35],16.3%
same,"viability, T/C",[36],11.8%
O=C(c1cc(Cc2n[nH]c(=O)c3ccccc23)ccc1F)N1CCN(C(=O)C2CC2)CC1 + COC1C(OC(N)=O)C(O)C(Oc2ccc3c(O)c(NC(=O)c4ccc(O)c(CC=C(C)C)c4)c(=O)oc3c2C)OC1(C)C,IC50,second compound 0.0316 µM,> 10 µM
same,IC50,second compound 0.1 µM,> 10 µM
same,IC50,second compound 0.316 µM,> 10 µM
same,IC50,second compound 1 µM,> 10 µM
same,IC50,second compound 3.16 µM,> 10 µM
same,IC50,second compound 10 µM,> 10 µM
same,"viability, T/C",[1],125%
same,"viability, T/C",[2],126%
same,"viability, T/C",[3],90.8%
same,"viability, T/C",[4],100%
same,"viability, T/C",[5],109%
same,"viability, T/C",[6],84.1%
same,"viability, T/C",[7],94%
same,"viability, T/C",[8],130%
same,"viability, T/C",[9],94.4%
same,"viability, T/C",[10],88.2%
same,"viability, T/C",[11],102%
same,"viability, T/C",[12],79.3%
same,"viability, T/C",[13],123%
same,"viability, T/C",[14],123%
same,"viability, T/C",[15],112%
same,"viability, T/C",[16],115%
same,"viability, T/C",[17],92.9%
same,"viability, T/C",[18],97%
same,"viability, T/C",[19],93.4%
same,"viability, T/C",[20],103%
same,"viability, T/C",[21],87.1%
same,"viability, T/C",[22],91.2%
same,"viability, T/C",[23],104%
same,"viability, T/C",[24],104%
same,"viability, T/C",[25],92.8%
same,"viability, T/C",[26],96.8%
same,"viability, T/C",[27],96.3%
same,"viability, T/C",[28],81.6%
same,"viability, T/C",[29],96.1%
same,"viability, T/C",[30],86.5%
same,"viability, T/C",[31],84.5%
same,"viability, T/C",[32],121%
same,"viability, T/C",[33],79.3%
same,"viability, T/C",[34],82.7%
same,"viability, T/C",[35],120%
same,"viability, T/C",[36],90%
